Assay results as given in patent US20250034216A1, “STEREOSELECTIVE COVALENT LIGANDS FOR ONCOGENIC AND IMMUNOLOGICAL PROTEINS” (The Scripps Research Institute, priority 2021, published 2025).
Peptide text beside a SMILES is read from it. * marks the point of attachment. Cbz = O=C(OCc1ccccc1)*

What was measured:
[1] = system: SIINFEKL presentation in E.G7-Ova cells; assay: FACS analysis with citric acid wash; format: cell-based, mouse; conditions: 4 h treatment, recovery up to 4 h
Procedure: (§1) E.G7-Ova cells (2 million/mL) were treated with compounds for 4 hours, washed with PBS, and then washed with 1 mL of 131 mM citric acid for 2 minutes, quenched with 1 mL 66 mM NaH2PO4, and then washed with PBS 3 times. Cells were then resuspended in warm RPMI and allowed to recover for the indicated period, after which cells were washed with PBS and transferred to 96 well plates for staining. Each well was washed with 200 μL PBS, and then stained for 20 minutes with 50 μL of staining solution: 1:1000 fixable near-IR LIVE/DEAD stain (Invitrogen) and 1:200 dilution of anti-SIINFEKL (BioLegend) or anti-Kb (BioLegend) antibody in FACS buffer (2% FBS in PBS supplemented with PenStrep and sterile filtered). Additional wells were used as unstained or singly-stained controls. After staining, cells were washed with PBS, then fixed in 200 μL 4% paraformaldehyde in PBS for 15 minutes. Cells were resuspended in 75 μL FACS buffer and analyzed on a Novocyte flow cytometer. The corresponding data in FIG. 2J are presented as the average percentage of median fluorescence intensity relative to DMSO treated control±SD from n=4 replicates. The corresponding data in FIG. 2K are presented as the average percentage of MFI relative to DMSO treated control±SD from n=3 replicates. Statistical analysis was performed using GraphPad PRISM Version 9.0.0.

[2] = system: overall MHC-I presentation in E.G7-Ova cells; assay: FACS analysis with citric acid wash; format: cell-based, mouse; conditions: 4 h treatment, recovery up to 4 h
Procedure: as §1

[3] = molecular target: T1, recombinant FLAG-PSME1 (PSME1_C22) (Homo sapiens, UniProt Q06323); assay: Gel-based ABPP for PSME1 cysteine engagement; format: binding; conditions: HEK293T lysates, WT or C22A FLAG-PSME1, 2.5 μM, 30 min
T1 construct: FLAG (C); expressed in transfected cells; host or cells: HEK293T (lysate treated in vitro)
T1 sequence (Q06323 whole entry): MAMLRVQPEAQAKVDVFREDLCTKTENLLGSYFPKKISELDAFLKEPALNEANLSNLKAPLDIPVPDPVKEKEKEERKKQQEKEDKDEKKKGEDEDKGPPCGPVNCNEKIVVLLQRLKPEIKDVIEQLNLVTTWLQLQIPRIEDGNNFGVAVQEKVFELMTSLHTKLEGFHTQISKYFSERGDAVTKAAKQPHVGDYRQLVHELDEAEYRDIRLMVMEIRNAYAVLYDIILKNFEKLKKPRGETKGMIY
Procedure: C-terminally FLAG-tagged PSME1 WT or C22A were transiently expressed in HEK293T cells, harvested 48 hours later, then cells were divided into aliquots, flash frozen and stored at −80 C. On the day of the experiment, an aliquot of cells were thawed, lysed by sonication in ice-cold PBS supplemented with cOmplete protease inhibitors (1 tablet/10 mL of PBS). normalized to 2.0 mg/mL, and divided into 25 μL aliquots. 1 μL of DMSO or compound (25× stock) was incubated with lysates for 1.5 hours at RT, followed by incubation with 1 μL of 62.5 μM MY-11B click probe (final concentration […]) for an additional 30 minutes. Reagents for the CuAAC click reaction were pre-mixed prior to addition to the samples. After 1 hour of click labeling, 4×SDS running buffer was added to samples, which were then analyzed by SDS-PAGE. ImageJ was used to quantify rhodamine band intensities, and GraphPad PRISM Version 9.0.0 was used to generate IC50 curves (four-parameter variable slope least squares regression).

SF3B1 (~150 kDa protein) = molecular target: T2, SF3B1 (~150 kDa protein) (Homo sapiens, UniProt O75533+Q7RTV0); assay: Gel-based ABPP for SF3B1 cysteine engagement; format: binding; conditions: 22Rv1 cells, 1 μM alkyne probe, 1 h
T2 construct: Cysteine engagement data from 22Rv1 cells treated; endogenous in cells; host or cells: 22Rv1
T2 sequence (O75533 whole entry): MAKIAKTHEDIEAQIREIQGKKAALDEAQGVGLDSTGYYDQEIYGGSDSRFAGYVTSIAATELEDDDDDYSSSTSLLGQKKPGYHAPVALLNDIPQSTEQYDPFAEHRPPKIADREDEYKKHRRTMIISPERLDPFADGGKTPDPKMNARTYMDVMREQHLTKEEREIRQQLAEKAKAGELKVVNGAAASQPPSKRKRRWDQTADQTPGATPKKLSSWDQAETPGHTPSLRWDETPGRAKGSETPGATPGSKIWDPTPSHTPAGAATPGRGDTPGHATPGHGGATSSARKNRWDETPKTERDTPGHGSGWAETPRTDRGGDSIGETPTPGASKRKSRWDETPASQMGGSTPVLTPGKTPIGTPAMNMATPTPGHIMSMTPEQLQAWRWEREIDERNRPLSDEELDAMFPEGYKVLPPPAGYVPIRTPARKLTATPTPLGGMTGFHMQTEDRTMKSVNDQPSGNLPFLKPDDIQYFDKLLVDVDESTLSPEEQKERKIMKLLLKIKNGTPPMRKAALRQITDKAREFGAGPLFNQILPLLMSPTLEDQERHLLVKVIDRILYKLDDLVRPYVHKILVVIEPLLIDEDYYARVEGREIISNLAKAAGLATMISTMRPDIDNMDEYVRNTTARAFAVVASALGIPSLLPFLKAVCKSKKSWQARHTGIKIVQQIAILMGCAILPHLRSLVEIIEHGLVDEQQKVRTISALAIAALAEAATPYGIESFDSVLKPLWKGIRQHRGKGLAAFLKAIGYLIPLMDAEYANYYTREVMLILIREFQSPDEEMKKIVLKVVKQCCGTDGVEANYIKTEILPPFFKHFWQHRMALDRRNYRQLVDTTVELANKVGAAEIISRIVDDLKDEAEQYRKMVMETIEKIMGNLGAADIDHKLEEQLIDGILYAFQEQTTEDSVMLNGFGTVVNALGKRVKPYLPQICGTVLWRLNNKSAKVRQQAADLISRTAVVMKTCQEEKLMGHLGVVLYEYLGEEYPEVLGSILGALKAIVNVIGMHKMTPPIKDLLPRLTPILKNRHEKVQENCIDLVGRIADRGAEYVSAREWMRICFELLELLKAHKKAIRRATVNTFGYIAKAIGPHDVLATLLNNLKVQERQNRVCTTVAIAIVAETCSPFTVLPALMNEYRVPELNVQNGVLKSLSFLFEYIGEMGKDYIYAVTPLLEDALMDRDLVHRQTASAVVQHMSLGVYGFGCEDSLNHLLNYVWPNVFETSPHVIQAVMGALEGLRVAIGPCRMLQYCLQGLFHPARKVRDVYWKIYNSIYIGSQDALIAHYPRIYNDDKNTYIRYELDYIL
T2 sequence (Q7RTV0 whole entry): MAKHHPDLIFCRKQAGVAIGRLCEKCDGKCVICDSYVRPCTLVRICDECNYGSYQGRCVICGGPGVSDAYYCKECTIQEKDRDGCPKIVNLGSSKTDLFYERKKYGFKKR
T2 sequence (Q15393 whole entry partner): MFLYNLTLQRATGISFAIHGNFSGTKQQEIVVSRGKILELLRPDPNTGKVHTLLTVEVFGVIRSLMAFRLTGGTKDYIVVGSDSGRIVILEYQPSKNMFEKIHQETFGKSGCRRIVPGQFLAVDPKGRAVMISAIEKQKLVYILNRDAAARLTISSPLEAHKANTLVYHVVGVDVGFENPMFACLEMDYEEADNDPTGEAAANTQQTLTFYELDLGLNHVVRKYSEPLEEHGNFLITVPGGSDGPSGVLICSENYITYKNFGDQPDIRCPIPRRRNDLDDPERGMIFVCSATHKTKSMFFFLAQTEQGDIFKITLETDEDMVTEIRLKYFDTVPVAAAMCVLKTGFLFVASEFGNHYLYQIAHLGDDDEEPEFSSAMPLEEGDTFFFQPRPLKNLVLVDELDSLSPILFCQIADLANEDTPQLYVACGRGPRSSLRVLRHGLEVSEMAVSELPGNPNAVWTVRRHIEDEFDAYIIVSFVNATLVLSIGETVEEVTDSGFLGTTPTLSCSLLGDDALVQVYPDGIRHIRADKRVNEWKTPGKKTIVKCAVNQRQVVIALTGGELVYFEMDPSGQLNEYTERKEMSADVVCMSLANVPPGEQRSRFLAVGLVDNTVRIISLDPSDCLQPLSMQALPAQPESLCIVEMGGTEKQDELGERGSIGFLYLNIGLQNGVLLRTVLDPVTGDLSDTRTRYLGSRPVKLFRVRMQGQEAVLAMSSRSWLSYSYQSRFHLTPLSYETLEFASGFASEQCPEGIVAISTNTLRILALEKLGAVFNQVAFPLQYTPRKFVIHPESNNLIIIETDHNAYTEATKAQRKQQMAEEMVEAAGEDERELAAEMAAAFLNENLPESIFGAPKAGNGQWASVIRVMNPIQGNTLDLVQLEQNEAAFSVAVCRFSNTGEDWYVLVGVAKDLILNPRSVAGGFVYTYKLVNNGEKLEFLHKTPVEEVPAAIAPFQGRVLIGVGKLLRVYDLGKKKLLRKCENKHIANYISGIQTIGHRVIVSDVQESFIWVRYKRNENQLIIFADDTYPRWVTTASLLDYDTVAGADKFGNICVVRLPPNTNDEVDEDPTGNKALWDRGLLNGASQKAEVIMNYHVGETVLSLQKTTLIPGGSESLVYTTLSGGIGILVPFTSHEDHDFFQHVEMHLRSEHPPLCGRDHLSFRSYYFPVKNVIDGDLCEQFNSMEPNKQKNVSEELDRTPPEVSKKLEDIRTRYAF
T2 sequence (Q9BWJ5 whole entry partner): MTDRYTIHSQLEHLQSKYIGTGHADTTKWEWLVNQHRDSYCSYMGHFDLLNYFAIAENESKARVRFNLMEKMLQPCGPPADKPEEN
Procedure: 22Rv1 cells were treated with indicated compounds for 24 h, chased with click probe for 1 h in situ, harvested and lysed in PBS with protease inhibitors (cOmplete), and then normalized to 2.0 mg/mL. Reagents for the CuAAC click reaction were pre-mixed prior to addition to the samples (3 μL of click reaction mix for 25 μL of lysate). After 1 hour of click labeling, 4×SDS running buffer was added to samples, which were then analyzed by SDS-PAGE.

[4] = system: mRNA splicing in 22Rv1 cells; assay: RNA sequencing, alternative splicing (rMATS); format: cell-based, human; conditions: 8 hr, RNA-seq
Procedure: RNA sequencing libraries were prepared using the NEBNext Ultra II RNA Library Prep Kit for Illumina following manufacturer's instructions (NEB, Ipswich, MA, USA). mRNAs were first enriched with Oligo(dT) beads. Enriched mRNAs were fragmented for 15 minutes at 94° C. First strand and second strand cDNAs were subsequently synthesized. cDNA fragments were end repaired and adenylated at 3′ends, and universal adapters were ligated to cDNA fragments, followed by index addition and library enrichment by limited-cycle PCR. The sequencing libraries were validated on the Agilent TapeStation (Agilent Technologies, Palo Alto, CA, USA), and quantified by using Qubit 2.0 Fluorometer (Invitrogen, Carlsbad, CA) as well as by quantitative PCR (KAPA Biosystems, Wilmington, MA, USA). FASTQ files were first trimmed using Trim_galore (v0.6.4) to remove sequencing adapters and low quality (Q<15) reads. Trimmed sequencing reads were aligned to the human Hg19 reference genome (GENCODE, GRCh37.p13) using STAR (v2.7.5). SAM files were subsequently converted to BAM files, sorted, and indexed using samtools (v1.9). […] Read counting across genomic features was performed using featureCounts (part of the subread package; v1.5.0) using the following parameters: -p -T 20 -O -F GTF -t exon. […]
For quantification of alternative RNA splicing, BAM files generated by STAR/Samtools were analyzed using rMATS (v4.1.1) using the GENCODE (v19) GTF annotation for Hg19 (GRCh37.p13) and the following parameters: -t paired --libType fr-unstranded—readLength 150—novelSS. To utilize reads shorted than 150b.p. resulting from adapter and/or QC trimming by trim_galore, rMATS was programmed to accept soft-clipped reads of variable length. Enumeration of isoform counts was performed using only reads that span the splice junction directly. To identify high confidence AS events, events were considered significant if (i) the inclusion level difference was greater than 20% compared to DMSO, (ii) the False Discovery Rate (FDR) was smaller than 0.05, and (iii) there were a minimum of 20 reads mapping to the splice junction. […]

[5] = system: SF3B1 interacting proteins; assay: SF3B1 co-immunoprecipitation-MS; format: cell-based, human; conditions: HEK293T cells, 5 μM WX-02-23 or 10 nM pladienolide B, 3 h
Procedure: HEK293T cells were treated in situ with DMSO, 5 μM of WX-02-23/WX-02-43, or 10 nM pladienolide B for 3 hours. Cells were harvested, washed with ice-cold PBS, and lysed in ColP lysis buffer (0.5% NP-40, 100 mM EPPS, 150 mM NaCl, cOmplete protease inhibitor). Lysates centrifuged at 16,000 g for 3 minutes, normalized to 2.0 mg/mL and 500 μL of each lysate was aliquoted to a clean eppendorf tube.
Lysates were incubated with 5 μL of anti-IgG or anti-SF3B1 (CST) for 2 hours at 4 C, followed by 1 hour with 25 μL of protein-A agarose beads. Bead were washed twice with ColP lysis buffer, and then twice with 100 mM EPPS, followed by elution with 8 M urea in EPPS at 65 C for 10 min. […] Samples were then trypsinized at 37 C overnight (2 ug of trypsin per sample), then TMT labeled and desalted.

22Rv1 cells = assay: Proliferation assay (CellTiter Glo); format: cell-based, human; conditions: 72 h
Procedure: Cells were seeded at 5000 cells per well (50 μL medium) in 96-well flat bottom white wall plates. After 24 h, 50 μL of medium containing DMSO or compound dilutions (2× final concentration from 1000× stocks) were added to the wells. At the time of compound addition, a reference plate to determine the cell population density at time 0 (TO) was assayed using CellTiter Glo reagent (50 μL added to each well). After 72 h in culture, the remaining plates were assayed using CellTiter Glo. After 30 min of shaking at room temperature, luminescence was analyzed using a CLARIOstar (BMG Labtech) plate reader. Raw values were normalized using GraphPad PRISM software version 9.0.0. Lines of best fit were generated using a four-parameter variable slope least squares regression.

p27 = assay: anti-p27 western blot; format: cell-based, human; conditions: 22Rv1 cells, 24 h

CC(C)C[C@@H](C=O)NC(=O)[C@H](CC(C)C)NC(=O)[C@H](CC(C)C)NC(=O)OCc1ccccc1 [MG132, reference compound] (Cbz-Leu-Leu-Leu-aldehyde)
SIINFEKL presentation after acid wash [1]: suppressed both SIINFEKL peptide and MHC-I presentation
overall MHC-I presentation after acid wash [2]: suppressed both SIINFEKL peptide and MHC-I presentation

C#Cc1ccc([C@H]2CN(C(=O)C=C)[C@H]2C(=O)Nc2cccc3cccnc23)cc1 [MY-11B, (2R,3S)-1-acryloyl-3-(4-ethynylphenyl)-N-(quinolin-8-yl)azetidine-2-carboxamide]
alkyne probe labeling of PSME1_C22 (CuAAC, azide-rhodamine) [3]: site-specific and stereoselective engagement

C#CCOc1ccc2[nH]c3c(c2c1)C[C@@H](C(=O)OC)N(C(=O)C=C)[C@@H]3c1ccc2c(c1)OCO2 [WX-01-10, methyl (1R,3S)-2-acryloyl-1-(benzo[d][1,3]dioxol-5-yl)-6-(prop-2-yn-1-yloxy)-2,3,4,9-tetra-hydro-1H-pyrido[3,4-b]indole-3-carboxylate]
alkyne probe labeling of ~150 kDa protein (SF3B1 (~150 kDa protein)): labeled an ˜150 kDa protein

pladienolide B [reference compound]
mRNA splicing changes [4]: induction of both intron retention and exon skipping events
SF3B1 interactions (DDX42 association) [5]: similar, but not identical reshaping of SF3B1 interactions
anti-proliferative effect (22Rv1 cells): strong anti-proliferative activity
p27 expression (p27): induced expression of p27
